# Assay results: ChEMBL document CHEMBL2203188, “Preparation of N-(Hetero)cyclyl Benzamides as Inhibitors of the Activity of Complex III of the Mitochondrial Electron Transport Chain: Patent Highlight” (ACS Med Chem Lett, 2012)
# Assay: Inhibition of electron transport protein complex 3 in glioma initiating cells assessed as increase in cell death at 50 uM after 48 hrs relative to control
# Assay type: cell-based
smiles,measurement,value
O=CNc1cccc(C(=O)NC2CCCCCCCC2)c1O,fold change (FC),> 1.2
